Measured values reported in patent US9603821B2, “Inhibitor of τ protein phosphorylation” (NISHIZAKI BIOINFORMATION RESEARCH INSTITUTE, priority 2013, dated 2017).

Legend:
human recombinant PKCε = target: T1, human recombinant PKCε (Homo sapiens, UniProt Q02156); experiment: GSK-3β assay under cell-free conditions with PKCε; format: biochemical; settings: FIG. 7
T1 construct: His; purchased Calbiochem
T1 sequence (Q02156 1-737): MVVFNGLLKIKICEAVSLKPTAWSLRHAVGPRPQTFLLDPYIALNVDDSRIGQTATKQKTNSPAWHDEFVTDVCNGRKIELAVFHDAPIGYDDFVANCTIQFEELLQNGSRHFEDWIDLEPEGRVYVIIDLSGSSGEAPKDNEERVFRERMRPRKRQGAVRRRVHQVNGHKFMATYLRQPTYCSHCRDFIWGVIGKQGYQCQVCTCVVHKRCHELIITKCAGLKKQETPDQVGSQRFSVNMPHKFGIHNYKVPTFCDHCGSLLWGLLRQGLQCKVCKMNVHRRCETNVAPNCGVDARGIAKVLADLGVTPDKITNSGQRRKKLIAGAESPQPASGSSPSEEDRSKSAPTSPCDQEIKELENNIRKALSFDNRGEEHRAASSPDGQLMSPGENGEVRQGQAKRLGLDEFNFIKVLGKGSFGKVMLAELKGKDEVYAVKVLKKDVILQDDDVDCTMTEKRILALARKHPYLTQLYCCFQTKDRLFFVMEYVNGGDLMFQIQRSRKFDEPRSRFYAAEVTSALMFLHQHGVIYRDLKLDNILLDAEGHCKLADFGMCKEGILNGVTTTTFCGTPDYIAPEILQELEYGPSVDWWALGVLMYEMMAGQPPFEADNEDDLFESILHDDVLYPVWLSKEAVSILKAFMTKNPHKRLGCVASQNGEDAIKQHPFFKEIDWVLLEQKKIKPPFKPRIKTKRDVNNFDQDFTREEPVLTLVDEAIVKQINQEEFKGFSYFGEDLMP
Procedure: Human recombinant GSK-3β (Sigma, St. Louis, Mo., USA) was reacted with His-tagged human recombinant PKCε (Calbiochem, San Diego, Calif., USA) under cell-free conditions in the presence or absence of a given concentration (1-100 μM) of DCP-LA, and with or without addition of GF109203X, in a culture medium containing 20 mM Tris-HCl (pH 7.5), 5 mM Mg-acetate, 12.5 mM glycerol 2-phosphate and 250 μM ATP at 30° C. for 20 min. The protein was separated by SDS-polyacrylamide gel electrophoresis (SDS-PAGE), and transferred on a polyvinylidene difluoride membrane. The blotting membrane was blocked with TBS-T [150 mM NaCl, 0.1% (v/v) Tween20 and 20 mM Tris, pH 7.5] containing 5% (w/v) BSA, and sequentially reacted with anti-serine 9 phosphorylated GSK-3β antibody (Cell Signaling Technology, Inc., Danvers, Mass., USA) or anti-GSK-3β antibody (Cell Signaling Technology, Inc., Danvers, Mass., USA). After washing, the membrane was reacted with horseradish peroxidase conjugated goat anti-mouse IgG antibody or goat anti-rabbit IgG antibody. The immunoreactivity was detected using ECL kit (GE Healthcare, Piscataway, N.J., USA), and visualized using a chemical luminescence detection system (chemiluminescence detection system; GE Healthcare).

5XFAD mouse = experiment: Water maze test in 5XFAD mouse; format: in vivo; settings: oral, 30 min before water maze test, daily, DCP-LA 1 mg/kg, galanthamine 2.5 mg/kg, FIG. 6
Text: XFAD transgenic mouse is an animal model of Alzheimer's disease (AD), and contains five mutations of familial Alzheimer's disease (FAD) [Swedish, Florida and London mutations of human amyloid precursor protein (APP), and M146L and L286V mutations of presenilin (PS); Oakley H et al., J. Neurosci. 2006; 26: 10129-10140]. In 5XFAD mouse, Swedish mutation increases production of total amyloid β peptide (Aβ), and the remaining mutations particularly promote production of Aβ1-42.
5XFAD mouse was purchased from The Jackson Laboratory (Bar Harbor, Me., USA), and maintained by crossing with heterozygous transgenic mouse with B6/SJLF1 breeding stock. Non-transgenic wild-type litter-mate was used as a control. All experiments were performed at the age of 5.5-6.5 months.
A circular plastic water tank (diameter 90 cm, depth 36 cm) was used. The inside of the water tank was completely painted in white, and water containing White India ink was filled up to 20 cm from the bottom (22-25° C.). A platform (diameter 11 cm) painted in white was placed in water such that it was 1 cm below the water surface. The water tank was placed in a test room, and several marks seen by the mouse from the water tank were put thereon. During the test, the position of the marks was not changed. A platform was placed a predetermined position from the equal distance from the center and the end of the water tank, namely, center of one quadrant. At one of the randomly selected 3 points, the mouse was released facing the wall of the water tank, and the time necessary for evacuating on the platform (acquisition latency) was measured. When smoothly evacuated, the mouse was left on the platform for 10 seconds. […] The test was performed twice a day, and the second test was started at 30 seconds after the first test. The test was continuously performed for 8 days, and the mean (±SEM) of acquisition latency of continuous 2 days until the mouse reached the platform was calculated. After 7 days, the platform was removed and the time necessary for reaching the place where the platform was located (retention latency) was measured.
DCP-LA and galanthamine were dissolved in polyethylene glycol (PEG). DCP-LA, galanthamine and PEG were administered with an oral gavage needle 30 min before the water maze test.

Human PTP1B = target: T2, Human PTP1B (Homo sapiens, UniProt P18031); experiment: Assay of PTP1B activity under cell-free conditions (p-NPP dephosphorylation); format: biochemical; settings: DCP-LA 1-100 μM, p-NPP 10 mM, FIG. 1
T2 construct: made in house; host or cells: E. coli BL21 (DE3)
T2 sequence (P18031 1-435): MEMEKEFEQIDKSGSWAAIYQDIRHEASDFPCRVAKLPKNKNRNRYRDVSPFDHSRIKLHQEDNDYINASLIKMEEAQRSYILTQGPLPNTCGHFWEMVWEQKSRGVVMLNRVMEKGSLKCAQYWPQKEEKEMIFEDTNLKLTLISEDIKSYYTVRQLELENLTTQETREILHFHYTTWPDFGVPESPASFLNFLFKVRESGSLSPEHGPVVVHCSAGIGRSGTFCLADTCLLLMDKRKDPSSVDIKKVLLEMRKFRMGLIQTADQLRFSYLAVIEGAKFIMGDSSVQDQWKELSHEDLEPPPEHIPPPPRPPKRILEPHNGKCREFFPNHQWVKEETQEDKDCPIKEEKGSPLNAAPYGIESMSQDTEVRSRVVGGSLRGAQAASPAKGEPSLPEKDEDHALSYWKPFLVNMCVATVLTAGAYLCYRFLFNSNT
Procedure: Protein tyrosine phosphatase was measured under cell-free conditions by a method partially modified from the methods described in previous reports (Baba Y, et al. J Am Chem Soc 2003; 125; 9740-9749; Rice R L, et al. Biochemistry 1997; 36: 15965-15974). Human PTP1B was cloned to a pGEX-6P-3 vector having a GST tag at the NH2 terminus, and expressed in competent E. coli BL21 (DE3) suitable for transformation and protein expression. GST fusion PTP1B was affinity-purified using glutathione sepharose 4B (GE Healthcare Bio-Science KK, Tokyo, Japan). It was reacted with p-nitrophenylphosphate (p-NPP) (Sigma, St. Louis, Mo., USA) as a substrate and PTP1B activity was measured. The enzyme was pre-incubated in a reaction medium [50 mM HEPES, 1 mM EDTA, 50 mM NaCl, 1 mM dithiothreitol, pH 7.2] at 37° C. for 30 min in the presence or absence of DCP-LA at a given concentration (1-100 μM) and with or without addition of Na3VO4 which is a PTP1B inhibitor. Then, p-NPP (10 mM) was added to the reaction medium, and the mixture was incubated for 60 min. The reaction was discontinued by the addition of 0.1N NaOH. Dephosphorylated p-NPP, i.e., p-NP, was quantified at an absorbance of 405 nm by using SpectraMax PLUS384 (Molecular Devices, Sunnyvale, Calif., USA).

τ protein = τ protein phosphorylation induced by Aβ1-42 in rat hippocampus section, Western blotting; format: cell-based; settings: Aβ1-42 1 μM for 3 hr, DCP-LA 100 nM, FIG. 5
Procedure: (§1) A rat hippocampus section (male Wister rat, 6-week-old, 400 μm) was incubated in an artificial cerebrospinal fluid (117 mM NaCl, 3.6 mM KCl, 1.2 mM NaH2PO4, 1.2 mM MgCl2, 2.5 mM CaCl2, 25 mM NaHCO3, and 11.5 mM glucose) oxygenated with 95% O2 and 5% CO2, in the presence or absence of DCP-LA (100 nM) at 34° C. for 3 min. In another experiment set, the section was incubated with Aβ1-42 (1 μM) for 3 hr in the presence or absence of DCP-LA (100 nM). After incubation, the section was homogenized by sonication in an ice-cooled cell lysis buffer containing 1% (v/v) protease inhibitor cocktail and 1% (v/v) phosphatase inhibitor cocktail, and the homogenate was centrifuged (3,000 rpm, 5 min, 4° C.). The protein concentration of the supernatant was measured using BCA protein assay kit (Thermo Fisher Scientific, Rockford, Ill., USA). The protein was separated by SDS-polyacrylamide gel electrophoresis (SDS-PAGE), and transferred onto polyvinylidene difluoride membranes. […]
(§2) After washing, the membranes were reacted with horseradish peroxidase-conjugated goat anti-mouse IgG antibody or goat anti-rabbit IgG antibody. The immunoreactivity was detected using ECL kit (GE Healthcare, Piscataway, N.J., USA), and visualized using a chemical luminescence detection system (chemiluminescence detection system; GE Healthcare).

Akt = Akt activation in rat hippocampus section, Western blotting; format: cell-based; settings: 100 nM, 3 min, FIG. 3
Procedure: as §1, §2

GSK-3β = GSK-3β phosphorylation in rat hippocampus section, Western blotting; format: cell-based; settings: 100 nM, 3 min, FIG. 4
Procedure: as §1, §2

SMILES	suppression of DCP-LA/PKCε-induced Ser9 phosphorylation of GSK-3β (human recombinant PKCε; GF109203X 100 nM in the presence of DCP-LA and PKCε)	acquisition latency (5XFAD mouse)	retention latency (5XFAD mouse)	Ser9 phosphorylation of GSK-3β by PKCε (human recombinant PKCε; PKCε 1 μg/ml, DCP-LA 1-100 μM)	PTP1B inhibition (phosphatase activity, percentage of control) (Human PTP1B)	Ser202/Thr205 phosphorylation of τ protein induced by Aβ1-42 relative to total τ protein (τ protein)	Akt activation (phosphorylation of Thr308 and Ser473 relative to total Akt) (Akt)	Ser9 phosphorylation of GSK-3β relative to total GSK-3β (GSK-3β)
CN(C)CCCn1cc(C2=C(c3c[nH]c4ccccc34)C(=O)NC2=O)c2ccccc21 [GF109203X, reference compound]	phosphorylation is suppressed by GF109203X	–	–	–	–	–	–	–
COc1ccc2c3c1O[C@H]1C[C@@H](O)C=C[C@@]31CCN(C)C2 [galanthamine, reference compound]	–	showed no effect	showed no effect	–	–	–	–	–
CCCCCC1CC1CC1CC1CCCCCCCC(=O)O (stereo not shown) [DCP-LA, 8-[2-(2-Pentyl-cyclopropylmethyl)-cyclopropyl]-octanoic acid]	–	improved extension of both latencies to nearly normal levels	improved extension of both latencies to nearly normal levels	phosphorylates (inactivates) GSK-3β in the presence of PKCε	inhibits PTP1B in a concentration-dependent manner	suppresses phosphorylation of τ protein induced by Aβ1-42	has an action to activate Akt	phosphorylates (inactivates) GSK-3β
